Test results taken from the supplement of paper PMC11061612.

Columns and labels:
Experiment in all cases: combination Emax (second highest fraction inhibited in the dose matrix, 72 h); higher = more inhibition; extreme values may be limits of the assay
[1] = system: CGTH-W-1 (Thyroid Gland Carcinoma)
Summary of the method: (§1)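 Cell lines in DMEM/F12 or RPMI with 10% FBS were plated in 1536-well plates, held 24 hours at 37°C, 5% CO2, then given two-drug dose matrices for 72 hours (DMSO typically 0.2%). Viability was read by CellTiter-Glo 2.0 luminescence and scaled as inhibition from 0 (vehicle wells) to 1 (blank wells). Combination Emax is the second-highest inhibition in the matrix; Bliss excess is observed combination effect minus expected EA + EB − EA·EB, EA and EB being single-agent effects.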

[2] = system: NCI-H716 (Colorectal Carcinoma)
Summary of the method: as §1

[3] = system: LS-411N (Colorectal Carcinoma)
Summary of the method: as §1

[4] = system: GA-10 (Burkitt's Lymphoma)
Summary of the method: as §1

[5] = system: A2780 (Ovarian Carcinoma)
Summary of the method: as §1

WM1552C (Melanoma) = system: WM1552C (Melanoma)
Summary of the method: as §1

[6] = system: DU-4475 (Breast Carcinoma)
Summary of the method: as §1

[7] = system: GCT (Other Solid Carcinomas)
Summary of the method: as §1

769-P (Kidney Carcinoma) = system: 769-P (Kidney Carcinoma)
Summary of the method: as §1

HCC70 (Breast Carcinoma) = system: HCC70 (Breast Carcinoma)
Summary of the method: as §1

[8] = system: JVM-2 (B-Cell Non-Hodgkin's Lymphoma)
Summary of the method: as §1

[9] = system: LU-165 (Small Cell Lung Carcinoma)
Summary of the method: as §1

EB2 (Burkitt's Lymphoma) = system: EB2 (Burkitt's Lymphoma)
Summary of the method: as §1

[10] = system: JHU-022 (Oral Cavity Carcinoma)
Summary of the method: as §1

[11] = system: CAL-27 (Oral Cavity Carcinoma)
Summary of the method: as §1

[12] = system: KYSE-220 (Esophageal Squamous Cell Carcinoma)
Summary of the method: as §1

[13] = system: KYSE-140 (Esophageal Squamous Cell Carcinoma)
Summary of the method: as §1

[14] = system: HCC1395 (Breast Carcinoma)
Summary of the method: as §1

[15] = system: UACC-812 (Breast Carcinoma)
Summary of the method: as §1

[16] = system: NCI-H2087 (Lung Adenocarcinoma)
Summary of the method: as §1

| Structure (SMILES) | combination Emax [1] | combination Emax [2] | combination Emax [3] | combination Emax [4] | combination Emax [5] | combination Emax (WM1552C (Melanoma)) | combination Emax [6] | combination Emax [7] | combination Emax (769-P (Kidney Carcinoma)) | combination Emax (HCC70 (Breast Carcinoma)) | combination Emax [8] | combination Emax [9] | combination Emax (EB2 (Burkitt's Lymphoma)) | combination Emax [10] | combination Emax [11] | combination Emax [12] | combination Emax [13] | combination Emax [14] | combination Emax [15] | combination Emax [16] |
| --- | --- | --- | --- | --- | --- | --- | --- | --- | --- | --- | --- | --- | --- | --- | --- | --- | --- | --- | --- | --- |
| Cc1c2c(nn1C)CSCc1cc(n(C)n1)CSc1cc(c3ccccc3c1)OCCCc1c(C(=O)O)n(C)c3c-2c(Cl)ccc13 [AZD5991] + CC1(C)CCC(CN2CCN(c3ccc(C(=O)NS(=O)(=O)c4ccc(NCC5CCOCC5)c([N+](=O)[O-])c4)c(Oc4cnc5[nH]ccc5c4)c3)CC2)=C(c2ccc(Cl)cc2)C1 [Venetoclax] (first compound max 1 µM, 7x7, partner max 1 µM) | 0.257 | 0.176 | 0.157 | 0.64 | 0.817 | 0.735 | 0.447 | 0.288 | 0.122 | 0.938 | 0.639 | 0.291 | 0.332 | 0.116 | 0.955 | 0.181 | 0.485 | 0.736 | 0.694 | 0.153 |
| COc1nnc2ccc(N3CCC(c4ccc(OCCN5CCN(C)C(=O)[C@H]5C)cc4)CC3)nn12 [AZD5153] + C[C@@H]1COCCN1C2=NC(=NC(=C2)C3(CC3)[S@](=N)(=O)C)C4=C5C=CNC5=NC=C4 [AZD6738] (first compound max 1 µM, 7x7, partner max 10 µM) | 0.448 | 0.702 | 0.947 | 0.962 | 0.848 | 0.546 | 1 | 0.6 | 0.977 | 0.659 | 0.825 | 0.685 | 0.764 | 0.563 | 0.659 | 0.863 | 0.821 | 0.671 | 0.479 | 0.728 |
| COc1cccc(OCCCN)c1-c1cc(Nc2cnc(C#N)cn2)n[nH]1 [Prexasertib] + CN(C)CCCOc1ccc(-c2ccc3ncc4c(c3c2)n(C2CCOCC2)c(=O)n4C)cn1 [AZD0156] (first compound max 1 µM, 7x7, partner max 1 µM) | 0.777 | 0.662 | 0.782 | 1 | 0.673 | 0.844 | 0.951 | 0.324 | 0.898 | 0.922 | 0.949 | 0.561 | 0.909 | 0.659 | 0.421 | 0.925 | 0.959 | 0.857 | 0.537 | 0.761 |
| CC1(C)CCC(CN2CCN(c3ccc(C(=O)NS(=O)(=O)c4ccc(NCC5CCOCC5)c([N+](=O)[O-])c4)c(Oc4cnc5[nH]ccc5c4)c3)CC2)=C(c2ccc(Cl)cc2)C1 [Venetoclax] + C1CN(CCC1(C(=O)N[C@@H](CCO)C2=CC=C(C=C2)Cl)N)C3=NC=NC4=C3C=CN4 [Capivasertib] (first compound max 1 µM, 7x7, partner max 3 µM) | 0.215 | 0.287 | 0.305 | 0.584 | 0.61 | 0.469 | 0.246 | 0.426 | 0.241 | 0.686 | 0.661 | 0.269 | 0.795 | 0.359 | 0.261 | 0.223 | 0.669 | 0.662 | 0.238 | 0.123 |
| Cc1c2c(nn1C)CSCc1cc(n(C)n1)CSc1cc(c3ccccc3c1)OCCCc1c(C(=O)O)n(C)c3c-2c(Cl)ccc13 [AZD5991] + C[C@@H]1COCCN1C2=NC(=NC(=C2)C3(CC3)[S@](=N)(=O)C)C4=C5C=CNC5=NC=C4 [AZD6738] (first compound max 1 µM, 7x7, partner max 10 µM) | 0.389 | 0.574 | 0.772 | 0.998 | 0.922 | 0.836 | 0.978 | 0.411 | 0.797 | 0.967 | 0.912 | 0.321 | 0.8 | 0.492 | 1 | 0.877 | 0.925 | 0.918 | 0.674 | 0.588 |
| Cc1c2c(nn1C)CSCc1cc(n(C)n1)CSc1cc(c3ccccc3c1)OCCCc1c(C(=O)O)n(C)c3c-2c(Cl)ccc13 [AZD5991] + C1CN(CCC1(C(=O)N[C@@H](CCO)C2=CC=C(C=C2)Cl)N)C3=NC=NC4=C3C=CN4 [Capivasertib] (first compound max 1 µM, 7x7, partner max 3 µM) | 0.265 | 0.401 | 0.362 | 0.858 | 0.838 | 0.929 | 0.24 | 0.438 | 0.146 | 0.99 | 0.801 | 0.261 | 0.479 | 0.356 | 0.996 | 0.252 | 0.862 | 0.911 | 0.427 | 0.129 |
| Cc1c2c(nn1C)CSCc1cc(n(C)n1)CSc1cc(c3ccccc3c1)OCCCc1c(C(=O)O)n(C)c3c-2c(Cl)ccc13 [AZD5991] + CCN(CCO)CCCOc1ccc2c(Nc3cc(CC(=O)Nc4cccc(F)c4)[nH]n3)ncnc2c1 [AZD2811] (first compound max 1 µM, 7x7, partner max 1 µM) | 0.521 | 0.349 | 0.178 | 0.923 | 0.802 | 0.824 | 0.378 | 0.416 | 0.328 | 0.935 | 0.772 | 0.307 | 0.342 | 0.273 | 0.974 | 0.308 | 0.602 | 0.713 | 0.508 | 0.191 |
| Cc1c2c(nn1C)CSCc1cc(n(C)n1)CSc1cc(c3ccccc3c1)OCCCc1c(C(=O)O)n(C)c3c-2c(Cl)ccc13 [AZD5991] + C[C@@H](Nc1cc(F)cc(F)c1)c1cc(C(=O)N(C)C)cc2c(=O)cc(N3CCOCC3)oc12 [AZD8186] (first compound max 1 µM, 7x7, partner max 3 µM) | 0.319 | 0.265 | 0.178 | 0.869 | 0.835 | 0.77 | 0.117 | 0.454 | 0.223 | 1 | 0.712 | 0.226 | 0.467 | 0.398 | 0.936 | 0.177 | 0.332 | 0.736 | 0.649 | 0.167 |
| C=CCn1c(=O)c2cnc(Nc3ccc(N4CCN(C)CC4)cc3)nc2n1-c1cccc(C(C)(C)O)n1 [AZD1775] + C1CN(CCC1(C(=O)N[C@@H](CCO)C2=CC=C(C=C2)Cl)N)C3=NC=NC4=C3C=CN4 [Capivasertib] (first compound max 3 µM, partner max 3 µM) | 0.211 | 0.727 | 0.878 | 0.964 | 0.873 | 0.719 | 0.998 | 0.623 | 0.665 | 0.754 | 0.93 | 0.536 | 0.822 | 0.71 | 0.715 | 0.85 | 0.844 | 0.777 | 0.466 | 0.501 |
| CCc1c2c(nc3ccc(O)cc13)-c1cc3c(c(=O)n1C2)COC(=O)[C@]3(O)CC [SN-38] + CN(C)CCCOc1ccc(-c2ccc3ncc4c(c3c2)n(C2CCOCC2)c(=O)n4C)cn1 [AZD0156] (first compound max 0.3 µM, 7x7, partner max 1 µM) | 0.771 | 0.202 | 0.363 | 0.913 | 0.726 | 0.59 | 0.95 | 0.683 | 0.716 | 0.2 | 0.949 | 0.517 | 0.948 | 0.842 | 0.905 | 0.947 | 0.305 | 0.512 | 0.608 | 0.921 |
| Cc1c2c(nn1C)CSCc1cc(n(C)n1)CSc1cc(c3ccccc3c1)OCCCc1c(C(=O)O)n(C)c3c-2c(Cl)ccc13 [AZD5991] + CN(C)CCCOc1ccc(-c2ccc3ncc4c(c3c2)n(C2CCOCC2)c(=O)n4C)cn1 [AZD0156] (first compound max 1 µM, 7x7, partner max 1 µM) | 0.19 | 0.294 | 0.136 | 0.776 | 0.682 | 0.76 | 0.244 | 0.502 | 0.243 | 0.86 | 0.753 | 0.286 | 0.42 | 0.172 | 0.958 | 0.278 | 0.488 | 0.537 | 0.491 | 0.201 |
| C=CCn1c(=O)c2cnc(Nc3ccc(N4CCN(C)CC4)cc3)nc2n1-c1cccc(C(C)(C)O)n1 [AZD1775] + C[C@@H]1COCCN1C2=NC(=NC(=C2)C3(CC3)[S@](=N)(=O)C)C4=C5C=CNC5=NC=C4 [AZD6738] (first compound max 1 µM, partner max 10 µM) | 0.434 | 0.623 | 0.77 | 1 | 0.938 | 0.805 | 1 | 0.552 | 0.847 | 0.898 | 0.901 | 0.48 | 0.88 | 0.601 | 0.682 | 0.941 | 0.967 | 0.896 | 0.531 | 0.729 |
